# US4173539A, “Cationic surfactant compositions” (Lever Brothers Company, priority 1977, dated 1979)
# “And” between values parts separate entries of the source, which are not always exact repeats. Equal values may be shown once.
# Key:
# [1] = Effective normality ratio range of quaternary ammonium salt to anionic surfactant for stable dispersions; type: physicochemical
# From the text: The ranges of figures in the table are the ranges of normality ratios expressed as quaternary ammonium salt to 1 of anionic surfactant.
# There is no specific disclosure of the preparation of aqueous liquid concentrates in these prior publications of stable dispersions containing positively charged particles of quaternary ammonium softeners with single long-chain groups, and to prepare these it is necessary both to select a normality ratio within the operative range for the particular quaternary ammonium salt and anionic surfactant concerned and to employ a method of formulation which gives a homogeneous liquid phase before generating the complex-containing softener particles.
# [2] = Krafft point (Kp) determination; type: physicochemical; details: aqueous dispersion containing 2% by weight, temperature at which it becomes cloudy on cooling
# Procedure: A composition of uniform turbidity can be recognised simply by visual observation of a sample which has been placed in a test tube and allowed to stand for 24 hours at ambient temperature. […] The melting point of particles of softening agent can be determined by placing in a hot stage microscope a sample of composition on a glass slide covered by a glass cover slip and observing the temperature at which melting of the particle occurs as a change in shape of the particles indicating deformation of liquid droplets when the cover slip is moved over the slide. The Krafft point (Kp) of the quaternary ammonium chloride can be determined by heating an aqueous dispersion containing 2% by weight of it to a temperature at which a transparent solution is obtained, cooling it, and observing the temperature at which it becomes cloudy. The clear point of the composition can be determined by heating a sample to 95° C.: lack of optical clarity at this temperature is taken as showing that the clear point is above 95° C.
SMILES,"effective normality ratio range, quaternary ammonium salt to 1 of anionic surfactant ([1]; anionic surfactant: Sodium stearate)",Krafft point (Kp) [2],Krafft point (Kp) ([2]; listed as behenoyl-hydroxypropyltrimethylammonium chloride of Preparation I),"effective normality ratio range, quaternary ammonium salt to 1 of anionic surfactant ([1]; anionic surfactant: Sodium C15-C18 olefin sulphonate)","effective normality ratio range, quaternary ammonium salt to 1 of anionic surfactant ([1]; anionic surfactant: Sodium linear C10-C15 alkylbenzene sulphonate)","effective normality ratio range, quaternary ammonium salt to 1 of anionic surfactant ([1]; anionic surfactant: Sodium random secondary C13-C17 alkane sulphonate)","effective normality ratio range, quaternary ammonium salt to 1 of anionic surfactant ([1]; anionic surfactant: Sodium soap of tallow fatty acids)"
CCCCCCCCCCCCCCCCCCCCCC(=O)OCC(O)C[N+](C)(C)C.[Cl-] (stereo not shown) [3-behenoyloxy-2-hydroxypropyl trimethylammonium chloride],1.2-3.0,54 °C and 58 °C,58 °C,,,,
CCCCCCCCCCCCCCCCCCCCCC(=O)NCCC[N+](C)(C)C.[Cl-] [behenoylaminopropyl trimethylammonium chloride],,60 °C,,,,,
CCCCCCCCCCCCCCCC[N+](C)(C)Cc1ccccc1.[Cl-] [cetylbenzyldimethylammonium chloride],,16 °C,,,,,
CCCCCCCCCCCCCCCCCC[N+](C)(C)C.[Cl-] [stearyltrimethylammonium chloride],,11 °C,,1.4-1.8,1.5-3.0,1.3-2.0,1.1-1.6
